According to patent US12509444B2, “Compounds and methods for CD73 modulation and indications therefor” (Plexxikon Inc., priority 2019, dated 2025):

The molecules below were run against T1, Human CD73 (amino acid residues 27-549) (Homo sapiens, UniProt P21589) (assay: CD73 enzymatic assay (luciferase-based indirect assay, CellTiter-Glo)). Details: 0.4 nM CD73, 150 μM AMP, 1 hour at room temperature.
T1 construct: Human CD73 (amino acid residues 27-549); His tag (N); made in house; host or cells: E. coli
T1 sequence (P21589 27-549): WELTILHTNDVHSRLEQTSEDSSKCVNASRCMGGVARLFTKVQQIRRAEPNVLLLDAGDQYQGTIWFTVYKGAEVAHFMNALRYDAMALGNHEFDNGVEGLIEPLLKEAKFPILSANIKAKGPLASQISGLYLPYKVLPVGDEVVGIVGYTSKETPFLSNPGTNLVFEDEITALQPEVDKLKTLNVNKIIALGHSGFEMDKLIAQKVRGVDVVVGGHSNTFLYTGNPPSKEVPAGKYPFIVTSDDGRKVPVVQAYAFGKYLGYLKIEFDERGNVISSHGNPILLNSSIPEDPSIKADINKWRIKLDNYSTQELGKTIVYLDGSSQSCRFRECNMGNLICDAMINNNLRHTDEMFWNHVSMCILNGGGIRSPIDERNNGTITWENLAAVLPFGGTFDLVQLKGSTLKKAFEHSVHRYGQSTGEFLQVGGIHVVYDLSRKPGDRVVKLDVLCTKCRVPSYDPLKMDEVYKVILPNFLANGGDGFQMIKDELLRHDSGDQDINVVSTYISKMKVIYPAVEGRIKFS
Format: biochemical
Method: CD73 enzymatic activity was measured in a luciferase-based indirect assay using CellTiter-Glo® system from Promega. The luciferase reaction in the presence of ATP is inhibited by AMP, a primary substrate of CD73. Addition of CD73 enzyme to the reaction converts AMP to adenosine, and release the inhibition, producing a luminescent signal. Inhibition of CD73 leads to the decrease of this luminescent signal.
Human CD73 (amino acid residues 27-549) with N-Terminal His tag was purified in E. coli. All the assay components were prepared in 50 mM HEPEs buffer (pH 7.4) with 0.01% Tween® 20. The CD73 enzymatic assay was performed using 0.4 nM CD73 and 150 μM AMP. 9.5 μL of CD73 protein and 9.5 μL of AMP were added to the wells of a 384 well plate containing 1 μL of various concentrations of test compound or DMSO vehicle and incubated for 1 hour at room temperature. 16 wells containing CD73, AMP and 5% DMSO served as high control. 16 wells containing AMP and 5% DMSO served as low control. Enzymatic reaction was stopped and AMP level was measured indirectly by adding 5 μL of CellTiter-Glo® 2.0 reagent and 5 μL of ATP with a final concentration of 1 μM. Following incubation of the plate at room temperature for 30 minutes, luminescent signal was read on a Tecan plate reader. The percentage inhibition at individual concentrations relative to high and low controls was calculated. The data were analyzed by using nonlinear regression to generate IC50 values.

SMILES	IC50
CCCCOC(=O)N[C@@H]1CCN(c2cn[nH]c(=O)c2Cl)C1 [P-0001, butyl (R)-(1-(5-chloro-6-oxo-1,6-dihydropyridazin-4-yl)pyrrolidin-3-yl)carbamate]	0.001 to 10 µM
CC(C)(C)OC(=O)N[C@H]1CCN(c2cn[nH]c(=O)c2Cl)C1 [P-0002, tert-butyl (S)-(1-(5-chloro-6-oxo-1,6-dihydropyridazin-4-yl)pyrrolidin-3-yl)carbamate]	10 to 100 µM
O=C(NC1CCCCCC1)N[C@@H]1CCN(c2cn[nH]c(=O)c2Cl)C1 [P-0003, (R)-1-(1-(5-chloro-6-oxo-1,6-dihydropyridazin-4-yl)pyrrolidin-3-yl)-3-cycloheptylurea]	0.001 to 10 µM
O=C(NCC1CCCC1)N[C@@H]1CCN(c2cn[nH]c(=O)c2Cl)C1 [P-0004, (R)-1-(1-(5-chloro-6-oxo-1,6-dihydropyridazin-4-yl)pyrrolidin-3-yl)-3-(cyclopentylmethyl)urea]	0.001 to 10 µM
O=C(NCC1CCOC1)N[C@@H]1CCN(c2cn[nH]c(=O)c2Cl)C1 (stereo partly drawn) [P-0005, 1-((R)-1-(5-chloro-6-oxo-1,6-dihydropyridazin-4-yl)pyrrolidin-3-yl)-3-((tetrahydrofuran-3-yl)methyl)urea]	0.001 to 10 µM
O=C(NCC1CCS(=O)(=O)C1)N[C@@H]1CCN(c2cn[nH]c(=O)c2Cl)C1 (stereo partly drawn) [P-0006, 1-((R)-1-(5-chloro-6-oxo-1,6-dihydropyridazin-4-yl)pyrrolidin-3-yl)-3-((1,1-dioxidotetrahydrothiophen-3-yl)methyl)urea]	10 to 100 µM
O=C(NCC1CCCCC1)N[C@@H]1CCN(c2cn[nH]c(=O)c2Cl)C1 [P-0007, (R)-1-(1-(5-chloro-6-oxo-1,6-dihydropyridazin-4-yl)pyrrolidin-3-yl)-3-(cyclohexylmethyl)urea]	0.001 to 10 µM
O=C(NCC1CCOCC1)N[C@@H]1CCN(c2cn[nH]c(=O)c2Cl)C1 [P-0008, (R)-1-(1-(5-chloro-6-oxo-1,6-dihydropyridazin-4-yl)pyrrolidin-3-yl)-3-((tetrahydro-2H-pyran-4-yl)methyl)urea]	0.001 to 10 µM
O=C(Nc1cccnc1)N[C@@H]1CCN(c2cn[nH]c(=O)c2Cl)C1 [P-0009, (R)-1-(1-(5-chloro-6-oxo-1,6-dihydropyridazin-4-yl)pyrrolidin-3-yl)-3-(pyridin-3-yl)urea]	10 to 100 µM
O=C(N[C@@H]1CCN(c2cn[nH]c(=O)c2Cl)C1)Oc1ccccc1 [P-0010, phenyl (R)-(1-(5-chloro-6-oxo-1,6-dihydropyridazin-4-yl)pyrrolidin-3-yl)carbamate]	0.001 to 10 µM
CC(C)(C)OC(=O)N[C@@H]1CCN(c2cn[nH]c(=O)c2Br)C1 [P-0011, tert-butyl (R)-(1-(5-bromo-6-oxo-1,6-dihydropyridazin-4-yl)pyrrolidin-3-yl)carbamate]	0.001 to 10 µM
Cc1occc1NC(=O)N[C@@H]1CCN(c2cn[nH]c(=O)c2Cl)C1 [P-0012, (R)-1-(1-(5-chloro-6-oxo-1,6-dihydropyridazin-4-yl)pyrrolidin-3-yl)-3-(2-methylfuran-3-yl)urea]	0.001 to 10 µM
O=C(Nc1ccsc1)N[C@@H]1CCN(c2cn[nH]c(=O)c2Cl)C1 [P-0013, (R)-1-(1-(5-chloro-6-oxo-1,6-dihydropyridazin-4-yl)pyrrolidin-3-yl)-3-(thiophen-3-yl)urea]	0.001 to 10 µM
Cn1cc(NC(=O)N[C@@H]2CCN(c3cn[nH]c(=O)c3Cl)C2)cn1 [P-0014, (R)-1-(1-(5-chloro-6-oxo-1,6-dihydropyridazin-4-yl)pyrrolidin-3-yl)-3-(1-methyl-1H-pyrazol-4-yl)urea]	10 to 100 µM
COCCCNC(=O)N[C@@H]1CCN(c2cn[nH]c(=O)c2Cl)C1 [P-0016, (R)-1-(1-(5-chloro-6-oxo-1,6-dihydropyridazin-4-yl)pyrrolidin-3-yl)-3-(3-methoxypropyl)urea]	10 to 100 µM
O=C(NC1CCCC1)N[C@H]1CCN(c2cn[nH]c(=O)c2Cl)C1 [P-0023, (S)-1-(1-(5-chloro-6-oxo-1,6-dihydropyridazin-4-yl)pyrrolidin-3-yl)-3-cyclopentylurea]	10 to 100 µM
O=C(NC1CCN(C(=O)C(F)(F)F)CC1)N[C@H]1CCN(c2cn[nH]c(=O)c2Cl)C1 [P-0024, (S)-1-(1-(5-chloro-6-oxo-1,6-dihydropyridazin-4-yl)pyrrolidin-3-yl)-3-(1-(2,2,2-trifluoroacetyl)piperidin-4-yl)urea]	10 to 100 µM

SMILES	IC50
O=C(N[C@H]1CCN(c2cn[nH]c(=O)c2Cl)C1)OC1CCCCC1 [P-0025, cyclohexyl (S)-(1-(5-chloro-6-oxo-1,6-dihydropyridazin-4-yl)pyrrolidin-3-yl)carbamate]	0.001 to 10 µM
CCOC(=O)CCNC(=O)N[C@@H]1CCN(c2cn[nH]c(=O)c2Cl)C1 [P-0026, ethyl (R)-3-(3-(1-(5-chloro-6-oxo-1,6-dihydropyridazin-4-yl)pyrrolidin-3-yl)ureido)propanoate]	10 to 100 µM
Cc1noc(C)c1NC(=O)N[C@@H]1CCN(c2cn[nH]c(=O)c2Cl)C1 [P-0027, (R)-1-(1-(5-chloro-6-oxo-1,6-dihydropyridazin-4-yl)pyrrolidin-3-yl)-3-(3,5-dimethylisoxazol-4-yl)urea]	0.001 to 10 µM
O=C(Nc1cccc(C(F)(F)F)c1)N[C@@H]1CCN(c2cn[nH]c(=O)c2Cl)C1 [P-0028, (R)-1-(1-(5-chloro-6-oxo-1,6-dihydropyridazin-4-yl)pyrrolidin-3-yl)-3-(3-(trifluoromethyl)phenyl)urea]	10 to 100 µM
O=C(NC1CCOCC1)N[C@@H]1CCN(c2cn[nH]c(=O)c2Cl)C1 [P-0029, (R)-1-(1-(5-chloro-6-oxo-1,6-dihydropyridazin-4-yl)pyrrolidin-3-yl)-3-(tetrahydro-2H-pyran-4-yl)urea]	0.001 to 10 µM
O=C(NCc1ccccc1)N[C@@H]1CCN(c2cn[nH]c(=O)c2Cl)C1 [P-0031, (R)-1-benzyl-3-(1-(5-chloro-6-oxo-1,6-dihydropyridazin-4-yl)pyrrolidin-3-yl)urea]	10 to 100 µM
O=C(NCCc1ccccc1)N[C@@H]1CCN(c2cn[nH]c(=O)c2Cl)C1 [P-0032, (R)-1-(1-(5-chloro-6-oxo-1,6-dihydropyridazin-4-yl)pyrrolidin-3-yl)-3-phenethylurea]	10 to 100 µM
COc1cccc(NC(=O)N[C@@H]2CCN(c3cn[nH]c(=O)c3Cl)C2)c1 [P-0033, (R)-1-(1-(5-chloro-6-oxo-1,6-dihydropyridazin-4-yl)pyrrolidin-3-yl)-3-(3-methoxyphenyl)urea]	10 to 100 µM
CCOc1ccc(NC(=O)N[C@@H]2CCN(c3cn[nH]c(=O)c3Cl)C2)cc1 [P-0034, (R)-1-(1-(5-chloro-6-oxo-1,6-dihydropyridazin-4-yl)pyrrolidin-3-yl)-3-(4-ethoxyphenyl)urea]	10 to 100 µM
CCOc1cccc(NC(=O)N[C@@H]2CCN(c3cn[nH]c(=O)c3Cl)C2)c1 [P-0035, (R)-1-(1-(5-chloro-6-oxo-1,6-dihydropyridazin-4-yl)pyrrolidin-3-yl)-3-(3-ethoxyphenyl)urea]	10 to 100 µM
CC(C)(C)OC(=O)N[C@@H]1CCN(c2cn[nH]c(=O)c2C#N)C1 [P-0036, tert-butyl (R)-(1-(5-cyano-6-oxo-1,6-dihydropyridazin-4-yl)pyrrolidin-3-yl)carbamate]	0.001 to 10 µM
CC(C)(C)OC(=O)N[C@@H]1CCN(c2cn[nH]c(=O)c2)C1 [P-0037, tert-butyl (R)-(1-(6-oxo-1,6-dihydropyridazin-4-yl)pyrrolidin-3-yl)carbamate]	10 to 100 µM
O=C(Nc1ccccc1)N[C@@H]1CCN(c2cn[nH]c(=O)c2Cl)C1 [P-0038, (R)-1-(1-(5-chloro-6-oxo-1,6-dihydropyridazin-4-yl)pyrrolidin-3-yl)-3-phenylurea]	0.001 to 10 µM
COc1ccc(CNC(=O)N[C@@H]2CCN(c3cn[nH]c(=O)c3Cl)C2)cc1OC [P-0040, (R)-1-(1-(5-chloro-6-oxo-1,6-dihydropyridazin-4-yl)pyrrolidin-3-yl)-3-(3,4-dimethoxybenzyl)urea]	10 to 100 µM
O=C(Nc1ccc(OC(F)(F)F)cc1)N[C@@H]1CCN(c2cn[nH]c(=O)c2Cl)C1 [P-0041, (R)-1-(1-(5-chloro-6-oxo-1,6-dihydropyridazin-4-yl)pyrrolidin-3-yl)-3-(4-(trifluoromethoxy)phenyl)urea]	0.001 to 10 µM
N#Cc1ccc(NC(=O)N[C@@H]2CCN(c3cn[nH]c(=O)c3Cl)C2)cc1 [P-0042, (R)-1-(1-(5-chloro-6-oxo-1,6-dihydropyridazin-4-yl)pyrrolidin-3-yl)-3-(4-cyanophenyl)urea]	0.001 to 10 µM
